Data reported in patent US9801901B2, “Alginate oligomers for use in overcoming multidrug resistance in bacteria” (priority 2009, dated 2017).
Values after ≈ are worked out from the molar mass of the structure shown. Read-outs that look alike come from different tables or passages of the source. Marks after values point to notes of the source that are not given here.

Tests used:
[1] = tested on: PA01 Pseudomonas aeruginosa ATCC 15692; assay: MIC assay, two-fold antibiotic dilutions in CAMHB with alginate oligomer, no visible growth; type: cell-based; conditions: PA01
[2] = tested on: Pseudomonas aeruginosa ATCC 39324, mucoid type strain (R79); assay: MIC assay, CAMHB with alginate oligomer, no visible growth; type: cell-based; conditions: R79
[3] = tested on: Pseudomonas aeruginosa MDR R22 from China (V1); assay: as above; type: cell-based; conditions: V1 MDR R22 PA
Text: The study described in Example 1 was repeated with the following strains of bacteria and antibiotics as detailed in Tables 4, 5 and 6.

[4] = tested on: Pseudomonas aeruginosa MDR 301 from Poland (V2); assay: as above; type: cell-based; conditions: V2 MDR 301 PA
[5] = tested on: V9 (Egypt) Acinetobacter baumannii; assay: as above; type: cell-based; conditions: Table 5, V9 MDR Acin. baum
[6] = tested on: V11 5702 (Wales) E. coli; assay: as above; type: cell-based; conditions: Table 5, V11 MDR E.coli
[7] = tested on: V12 5725 (Wales) Klebsiella pneumoniae; assay: as above; type: cell-based; conditions: Table 5, V12 MDR Kleb pneu
[8] = tested on: V22 6056 Acinetobacter; assay: as above; type: cell-based, Acinetobacter lwoffii; conditions: Table 5, V22 MDR Acin. lwoff
[9] = tested on: strains of Klebsiella pneumoniae displaying MDR phenotypes; assay: MIC-assay, Mueller-Hinton broth with G-block alginate, 384-well, OD600 (Table 10); type: cell-based
Text: Minimum inhibitory concentration (MICs) of different antibiotics for strains of Klebsiella pneumoniae displaying MDR phenotypes in the presence of varying concentrations of OligoCF-5/20 (0-10%). (MIC values are expressed in μg ml^−1).

[10] = tested on: MDR Providencia stuartii; assay: MIC-assay, Mueller-Hinton broth with G-block alginate, 384-well, OD600 (Table 11); type: cell-based; conditions: Providencia stuartii (IR57 India, V7) MDR
Text: (§1) Minimum inhibitory concentration (MICs) of different antibiotics for strains of E. coli and Providencia stuartii displaying MDR phenotypes in the presence of varying concentrations of OligoCF-5/20 (0-10%). (MIC values are expressed in μg ml^−1).

[11] = tested on: strains of E. coli displaying MDR phenotypes; assay: as above; type: cell-based; conditions: Escherichia coli, Escherichia coli (5702, Wales, V11) MDR, read-out: MIC
Text: as §1

[12] = tested on: Pseudomonas aeruginosa (MDR 301, PSA, V2); assay: MIC-assay, Mueller-Hinton broth with G-block alginate, 384-well, OD600; conditions: Pseudomonas aeruginosa, Table 8, V2
[13] = tested on: Burkholderia cepacia (1322, V23); assay: as above
[14] = tested on: Burkholderia cepacia (LMG18941, ATCC-BAA-246); assay: as above
[15] = tested on: Acinetobacter lwoffii (6056, V22); assay: as above
[16] = tested on: Acinetobacter baumannii (Egypt, V9); assay: as above
[17] = tested on: Acinetobacter lwoffii (Egypt, V10); assay: as above
[18] = Pseudomonas aeruginosa, Table 1, OligoCF-5/20 0G, read-out: MIC
[19] = Pseudomonas aeruginosa, Table 1, OligoCF-5/20 +2% G, read-out: MIC
[20] = Pseudomonas aeruginosa, Table 1, OligoCF-5/20 +6% G, read-out: MIC
[21] = Pseudomonas aeruginosa, Table 1, OligoCF-5/20 +10% G, read-out: MIC
[22] = Table 9, G-block (OligoCF-5/20) 0%
[23] = Table 9, G-block (OligoCF-5/20) 2%
[24] = Table 9, G-block (OligoCF-5/20) 6%
[25] = Table 9, G-block (OligoCF-5/20) 10%

With `CC[C@H]1OC(=O)[C@H](C)[C@@H](O[C@H]2C[C@@](C)(OC)[C@@H](O)[C@H](C)O2)[C@H](C)[C@@H](O[C@@H]2O[C@H](C)C[C@H](N(C)C)[C@H]2O)[C@](C)(O)C[C@@H](C)CN(C)[C@H](C)[C@@H](O)[C@]1(C)O` [Azithromycin] the MIC ([1]; Pseudomonas aeruginosa, ATCC15692, Table 1, OligoCF-5/20 0G, read-out: MIC) was 128 µg/mL (≈ 171 µM), the MIC ([1]; Pseudomonas aeruginosa, ATCC15692, Table 1, OligoCF-5/20 +2% G, read-out: MIC) was 64 µg/mL (≈ 85.4 µM) and the MIC ([1]; Pseudomonas aeruginosa, ATCC15692, Table 1, OligoCF-5/20 +6% G, read-out: MIC) was 16 µg/mL (≈ 21.4 µM). For the same compound, the MIC ([1]; Pseudomonas aeruginosa, ATCC15692, Table 1, OligoCF-5/20 +10% G, read-out: MIC) was 4 µg/mL (≈ 5.34 µM), the MIC ([1]; Table 2, OligoCF-5/20 0G) was 128^† and the MIC ([1]; Table 2, OligoCF-5/20 +2% G) was 64^†. The MIC ([1]; Table 2, OligoCF-5/20 +6% G) was 16^†, the MIC ([1]; Table 2, OligoCF-5/20 +10% G) was 4^† and the MIC ([2]; Pseudomonas aeruginosa, ATCC39324, Table 1, OligoCF-5/20 0G, read-out: MIC) was 128 µg/mL (≈ 171 µM). For the same compound, the MIC ([2]; Pseudomonas aeruginosa, ATCC39324, Table 1, OligoCF-5/20 +2% G, read-out: MIC) was 64 µg/mL (≈ 85.4 µM), the MIC ([2]; Pseudomonas aeruginosa, ATCC39324, Table 1, OligoCF-5/20 +6% G, read-out: MIC) was 16 µg/mL (≈ 21.4 µM) and the MIC ([2]; Pseudomonas aeruginosa, ATCC39324, Table 1, OligoCF-5/20 +10% G, read-out: MIC) was 4 µg/mL (≈ 5.34 µM). For the same compound, the MIC ([2]; Table 2, OligoCF-5/20 0G) was 128^†, the MIC ([2]; Table 2, OligoCF-5/20 +2% G) was 64^† and the MIC ([2]; Table 2, OligoCF-5/20 +6% G) was 16^†. For the same compound, the MIC ([2]; Table 2, OligoCF-5/20 +10% G) was 4^†, the MIC [3, 18] was 64 µg/mL (≈ 85.4 µM) and the MIC [3, 19] was 64 µg/mL (≈ 85.4 µM). The MIC [3, 20] was 64 µg/mL (≈ 85.4 µM), the MIC [3, 21] was 32 µg/mL (≈ 42.7 µM) and the MIC ([3]; Table 2, OligoCF-5/20 0G) was 64^†. For the same compound, the MIC ([3]; Table 2, OligoCF-5/20 +2% G) was 64 µg/mL (≈ 85.4 µM), the MIC ([3]; Table 2, OligoCF-5/20 +6% G) was 64 µg/mL (≈ 85.4 µM) and the MIC ([3]; Table 2, OligoCF-5/20 +10% G) was 32^†. It also gave an MIC [4, 18] of 64 µg/mL (≈ 85.4 µM), an MIC [4, 19] of 64 µg/mL (≈ 85.4 µM) and an MIC [4, 20] of 32 µg/mL (≈ 42.7 µM). For the same compound, the MIC [4, 21] was 16 µg/mL (≈ 21.4 µM), the MIC ([4]; Table 2, OligoCF-5/20 0G) was 64^† and the MIC ([4]; Table 2, OligoCF-5/20 +2% G) was 64 µg/mL (≈ 85.4 µM). For the same compound, the MIC ([4]; Table 2, OligoCF-5/20 +6% G) was 32^†, the MIC ([4]; Table 2, OligoCF-5/20 +10% G) was 16^† and the MIC ([5]; Acinetobacter baumannii, OligoCF-5/20 0G, read-out: MIC) was 16 µg/mL (≈ 21.4 µM). For the same compound, the MIC ([5]; OligoCF-5/20 +2% G) was 4^† μg/ml, the MIC ([5]; OligoCF-5/20 +6% G) was 0.5^† μg/ml and the MIC ([5]; OligoCF-5/20 +10% G) was under 0.25 µg/mL. For the same compound, the MIC ([6]; Escherichia coli, OligoCF-5/20 0G, read-out: MIC) was 32 µg/mL (≈ 42.7 µM), the MIC ([6]; OligoCF-5/20 +2% G) was 16^† μg/ml and the MIC ([6]; OligoCF-5/20 +6% G) was 16^† μg/ml. The MIC ([6]; OligoCF-5/20 +10% G) was 32 µg/mL (≈ 42.7 µM), the MIC ([7]; Klebsiella pneumoniae, OligoCF-5/20 0G, read-out: MIC) was 32 µg/mL (≈ 42.7 µM) and the MIC ([7]; OligoCF-5/20 +2% G) was 8 µg/mL (≈ 10.7 µM). The MIC ([7]; OligoCF-5/20 +6% G) was 32 µg/mL (≈ 42.7 µM), the MIC ([7]; OligoCF-5/20 +10% G) was 32 µg/mL (≈ 42.7 µM) and the MIC ([8]; Acinetobacter, OligoCF-5/20 0G, read-out: MIC) was under 0.25 µg/mL. It also gave an MIC ([8]; OligoCF-5/20 +2% G) of under 0.25 µg/mL, an MIC ([8]; OligoCF-5/20 +6% G) of under 0.25 µg/mL and an MIC ([8]; OligoCF-5/20 +10% G) of under 0.25 µg/mL. The MIC ([9]; Klebsiella pneumoniae (5712, Wales, V12) MDR, G-block (OligoCF-5/20) 0%, read-out: MIC) was 16 µg/mL (≈ 21.4 µM), the MIC ([9]; Klebsiella pneumoniae (5712, Wales, V12) MDR, G-block (OligoCF-5/20) 2%, read-out: MIC) was 16 µg/mL (≈ 21.4 µM) and the MIC ([9]; Klebsiella pneumoniae (5712, Wales, V12) MDR, G-block (OligoCF-5/20) 6%, read-out: MIC) was 16 µg/mL (≈ 21.4 µM). For the same compound, the MIC ([9]; Klebsiella pneumoniae (5712, Wales, V12) MDR, G-block (OligoCF-5/20) 10%, read-out: MIC) was 16 µg/mL (≈ 21.4 µM), the MIC ([9]; Klebsiella pneumoniae (IR25, India, V6) MDR, G-block (OligoCF-5/20) 0%) was 128 µg/mL (≈ 171 µM) and the MIC ([9]; Klebsiella pneumoniae (IR25, India, V6) MDR, G-block (OligoCF-5/20) 2%, read-out: MIC) was 64 µg/mL (≈ 85.4 µM). It also gave an MIC ([9]; Klebsiella pneumoniae (IR25, India, V6) MDR, G-block (OligoCF-5/20) 6%, read-out: MIC) of 32 µg/mL (≈ 42.7 µM), an MIC ([9]; Klebsiella pneumoniae (IR25, India, V6) MDR, G-block (OligoCF-5/20) 10%, read-out: MIC) of 16 µg/mL (≈ 21.4 µM) and an MIC ([9]; Klebsiella pneumoniae (K3, India, V8) MDR, G-block (OligoCF-5/20) 0%, read-out: MIC) of 16 µg/mL (≈ 21.4 µM). The MIC ([9]; Klebsiella pneumoniae (K3, India, V8) MDR, G-block (OligoCF-5/20) 2%, read-out: MIC) was 8 µg/mL (≈ 10.7 µM), the MIC ([9]; Klebsiella pneumoniae (K3, India, V8) MDR, G-block (OligoCF-5/20) 6%, read-out: MIC) was 16 µg/mL (≈ 21.4 µM) and the MIC ([9]; Klebsiella pneumoniae (K3, India, V8) MDR, G-block (OligoCF-5/20) 10%, read-out: MIC) was 16 µg/mL (≈ 21.4 µM). The MIC ([10]; G-block (OligoCF-5/20) 0%) was under 2 µg/mL, the MIC ([10]; G-block (OligoCF-5/20) 2%) was under 2 µg/mL and the MIC ([10]; G-block (OligoCF-5/20) 6%) was under 2 µg/mL. The MIC ([10]; G-block (OligoCF-5/20) 10%) was under 2 µg/mL, the MIC ([11]; G-block (OligoCF-5/20) 0%) was 16 µg/mL (≈ 21.4 µM) and the MIC ([11]; G-block (OligoCF-5/20) 2%) was 16 µg/mL (≈ 21.4 µM). The MIC ([11]; G-block (OligoCF-5/20) 6%) was 8 µg/mL (≈ 10.7 µM), the MIC ([11]; G-block (OligoCF-5/20) 10%) was 16 µg/mL (≈ 21.4 µM) and the MIC ([12]; G-block (OligoCF-5/20) 2%) was 64 µg/mL (≈ 85.4 µM). For the same compound, the MIC ([12]; G-block (OligoCF-5/20) 6%) was 64 µg/mL (≈ 85.4 µM), the MIC ([12]; G-block (OligoCF-5/20) 10%) was 32 µg/mL (≈ 42.7 µM) and the MIC ([13]; Table 8, G-block (OligoCF-5/20) 0%) was 64 µg/mL (≈ 85.4 µM). The MIC ([13]; Table 8, G-block (OligoCF-5/20) 2%) was 32 µg/mL (≈ 42.7 µM), the MIC ([13]; Table 8, G-block (OligoCF-5/20) 6%) was 32 µg/mL (≈ 42.7 µM) and the MIC ([13]; Table 8, G-block (OligoCF-5/20) 10%) was 8 µg/mL (≈ 10.7 µM). For the same compound, the MIC ([14]; ATCCBAA246|LMG18941, Table 8, G-block (OligoCF-5/20) 0%) was 64 µg/mL (≈ 85.4 µM), the MIC ([14]; ATCCBAA246|LMG18941, Table 8, G-block (OligoCF-5/20) 2%) was 32 µg/mL (≈ 42.7 µM) and the MIC ([14]; ATCCBAA246|LMG18941, Table 8, G-block (OligoCF-5/20) 6%) was 16 µg/mL (≈ 21.4 µM). The MIC ([14]; ATCCBAA246|LMG18941, Table 8, G-block (OligoCF-5/20) 10%) was 16 µg/mL (≈ 21.4 µM), the MIC [15, 22] was under 2 µg/mL and the MIC [15, 23] was under 2 µg/mL. It also gave an MIC [15, 24] of under 2 µg/mL, an MIC [15, 25] of under 2 µg/mL and an MIC [16, 22] of 4 µg/mL (≈ 5.34 µM). For the same compound, the MIC [16, 23] was under 1 µg/mL, the MIC [16, 24] was under 1 µg/mL and the MIC [16, 25] was under 1 µg/mL. For the same compound, the MIC [17, 22] was under 1 µg/mL, the MIC [17, 23] was under 1 µg/mL and the MIC [17, 24] was under 1 µg/mL. The MIC [17, 25] was under 1 µg/mL.
